# Like-named read-outs stand apart in the source and are kept apart here.
# Assays:
# [1] = system: C. difficile strain ATCC 43596; assay: MIC90 against the infection model strain; format: cell-based; conditions: Clostridioides difficile, ATCC43596
# [2] = system: gut microflora populations; assay: In vitro human gut model, gut microflora populations (Example 3); format: cell-based
# Description: An in vitro gut model was used to study the effects of omadacycline instillation on both normal microflora populations and C. difficile. This gut model has been validated against gut contents from sudden death victims and provides a very close simulation of bacterial activities and composition in different areas of the hindgut (Macfarlane et al., Microb. Ecol. 35, 180-7, 1998). The model consists of three vessels aligned in series, and top-fed with a complex growth medium. All three vessels are continuously stirred, anaerobically maintained at 37° C. and regulated to reflect in vivo differences, including pH, from proximal to distal colon. The three anaerobic fermentation vessels are maintained at increasing alkalinity (from pH 5.5±0.2 for vessel 1; pH 6.2±0.2 for vessel 2; and pH 6.8±0.2 for vessel 3). The increasing alkalinity in combination with the nutrient limited conditions are designed to simulate the human gut from the proximal to the distal colon. Inoculation with pooled human feces (from healthy elderly volunteers) is followed by a period of equilibration, during which bacterial populations respond to their environmental conditions and reach a steady state. At this stage, dietary ingredients, prebiotics, pathogens and/or antibiotics may be added, and the bacterial populations monitored. Specific components of the gut flora and relevant pathogens may be closely monitored and their behavior analyzed.
# (§1) The gut model was inoculated with pooled fecal slurry (5 volunteers ≥60 years of age with no history of antibiotic therapy in the previous 3 months) and left for 2 weeks to allow the bacterial populations to achieve steady state. A single inoculum (˜10^7 cfu/mL) of C. difficile spores (PCR ribotype 027 strain 210) was added into vessel 1 of the gut model on day 14. One week later, on day 21, a second aliquot of C. difficile spores was added, and antibiotic instillation commenced. Omadacycline instillation (430 mg/L, once daily, for 7 days) commenced on day 21.
# Gut microbiota bacterial populations and C. difficile total viable counts and spore counts were enumerated daily by culture on selective and non-selective agars. C. difficile populations were monitored in all three vessels, and all other bacterial groups (total obligate anaerobes, total facultative anaerobes, lactose fermenting enterobacteriaceae, enterococci, total clostridia, lactobacilli, bifidobacteria, B. fragilis group) were monitored in vessels 2 and 3 only. Vessel 3 is of most physiological relevance in terms of propensity to induce CDI. C. difficile total viable counts and spores counts were monitored using viable counting and a differential alcohol shock viable count on selective agars.
# [3] = system: gut microflora populations; assay: In vitro human gut model, gut microflora populations (Example 4); format: cell-based
# Description: as §1, with “Model A (LHS) was exposed to moxifloxacin (43 mg/L, once daily, for 7 days) and Model B (RHS) was exposed to omadacycline” for “Omadacycline instillation”
# Bacterial populations in the gut model were monitored using selective agars to count viable bacterial colonies. Populations were monitored every other day for the first 2 weeks until the steady state was reached, and daily thereafter. C. difficile populations were monitored in all three vessels, and all other bacterial groups (total obligate anaerobes, total facultative anaerobes, lactose fermenting Enterobacteriaceae, Enterococci, total Clostridia, Lactobacilli, Bifidobacteria and B. fragilis group) were monitored in vessels 2 and 3 only. Vessel 3, which represents the distal colon, is of most physiological relevance in terms of propensity to induce CDI. C. difficile total viable counts and spores counts were monitored using viable counting and a differential alcohol shock viable count on selective agars. From day 14 onwards C. difficile cytotoxin was measured using a quantitative VERO cell cytotoxicity assay. Samples of 1 mL each were centrifuged at 16,000×g for 15 minutes, and the supernatants were removed. Six 1:10 serial dilutions (to 10^−6) of culture supernatants from the gut model were prepared. Twenty microliters of the appropriate dilution was added to VERO cell monolayers and a further 20 μL of C. sordellii antitoxin (diluted 1:10 in sterile distilled water) was placed in the corresponding antitoxin row. Monolayers were examined after 24 and 48 hours of incubation in 5% CO2, with a positive result indicated by the presence of cell rounding with concurrent neutralization of the effect by C. sordellii antitoxin. Cytotoxin titers (relative units, RU) were an arbitrary log10 scale, and the cytotoxin titer is reported in the highest dilution with >70% cell rounding, i.e. 10^0=1 RU, 10^−1=2 RU, 10^−2=3 RU. Samples were taken daily from day 21 onwards to determine antimicrobial concentrations in the gut model vessels by a bioassay. Concentrations of moxifloxacin were determined using Isosensitest agar with Escherichia coli as the indicator organism. Concentrations of omadacyline were determined using Wilkins Chalgren agar with Kocuria rhizophila as the indicator organism.
# [4] = Elimination of an oral dose via the biliary/fecal pathway; format: in vivo
# [5] = vessels 2 and 3, 430 mg/L once daily for 7 days
# [6] = vessels 2 and 3, 430 mg/L once daily for 7 days, fell below limit of detection
# [7] = vessels 2 and 3, once daily for 7 days
smiles,measurement,setting,value
CN(C)c1cc(CNCC(C)(C)C)c(O)c2c1C[C@H]1C[C@H]3[C@H](N(C)C)C(O)=C(C(N)=O)C(=O)[C@@]3(O)C(O)=C1C2=O (stereo in doubt) [Omadacycline],MIC90,[1]; read-out: MIC90,0.06 mg/L
same,MIC90,"[1]; replicate plate A, read-out: MIC90 Plate A",0.06 mg/L
same,MIC90,"[1]; replicate plate B, read-out: MIC90 Plate B",0.06 mg/L
same,time for all populations to return to steady state levels post antimicrobial exposure,[2]; after end of dosing,approximately 1 week
same,Enterobacteriacea populations,[2]; [5],remained undisturbed
same,decrease in B. fragilis group,[2]; [5],~3 log10 cfu/mL
same,decrease in Enterococcus spp.,[2]; [5],~4 log10 cfu/mL
same,decrease in Lactobacillus spp.,[2]; [5],~2 log10 cfu/mL
same,decline in Bifidobacteria population,[2]; [6],~6 log10 cfu/mL
same,decline in Clostridia population,[2]; [6],~6 log10 cfu/mL
same,recovery of populations after end of dosing,[3]; all populations,returned to pre-antibiotic exposure levels by the end of the experiment
same,Enterobacteriaceae populations,[3]; particularly in vessel 2,increased during omadacycline exposure
same,decline in B. fragilis group,[3]; [7],~8 log10 cfu/mL
same,decline in Bifidobacteria,[3]; [7],~8 log10 cfu/mL
same,decline in Enterococcus spp. / Enterococci populations,[3]; [7],~6 log10 cfu/mL
same,decline in Lactobacilli,[3]; [7],~6 log10 cfu/mL
same,decrease in Clostridia,[3]; [7],~5 log10 cfu/mL
same,decrease in lactose fermenting Enterobacteriaceae,[3]; [7],~5 log10 cfu/mL
same,overall decline in total anaerobe populations,[3]; [7],~5 log10 cfu/mL
same,total facultative anaerobes,[3]; [7],remained fairly stable throughout
same,proportion of the absorbed omadacycline eliminated in the gut (biliary/fecal elimination pathway),[4],approximately 60%
